This is an account of results in ChEMBL document CHEMBL5465560, “Selectivity Literature for EUbOPEN Chemogenomic Library” (2024).

The target in assay [1] is T1, Myosin light chain kinase family member 4 (Homo sapiens) (UniProt Q86YV6).
T1 sequence (whole entry): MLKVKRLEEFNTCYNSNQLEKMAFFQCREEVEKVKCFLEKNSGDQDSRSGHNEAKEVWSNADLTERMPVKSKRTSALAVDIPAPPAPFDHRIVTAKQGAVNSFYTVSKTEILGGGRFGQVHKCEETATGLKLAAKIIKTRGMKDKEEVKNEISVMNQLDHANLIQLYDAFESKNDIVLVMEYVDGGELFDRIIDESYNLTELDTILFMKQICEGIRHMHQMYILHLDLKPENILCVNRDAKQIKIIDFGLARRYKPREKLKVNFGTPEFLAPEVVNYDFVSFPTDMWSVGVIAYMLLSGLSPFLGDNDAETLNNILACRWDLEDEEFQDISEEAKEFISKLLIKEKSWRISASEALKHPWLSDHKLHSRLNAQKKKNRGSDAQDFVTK
Kind of assay: Selectivity interaction (LanthaScreen Eu Kinase Binding Assay) EUB0001632a MYLK4. Conditions: at 10 µM. On the technique in general: TR-FRET usually uses a lanthanide donor and a delayed reading to cut background.

For assay [2], the target named is 5'-AMP-activated protein kinase catalytic subunit alpha-2 (Homo sapiens) (UniProt P54646). Kind of assay: Selectivity interaction (Kinase panel (KiNativ target engagement assay in Jurkat cells)) EUB0001635a PRKAA2. It counts as cell-based. Conditions: at 1 µM.
5'-AMP-activated protein kinase catalytic subunit alpha-2 (Homo sapiens), sequence (P54646 whole entry, looked up): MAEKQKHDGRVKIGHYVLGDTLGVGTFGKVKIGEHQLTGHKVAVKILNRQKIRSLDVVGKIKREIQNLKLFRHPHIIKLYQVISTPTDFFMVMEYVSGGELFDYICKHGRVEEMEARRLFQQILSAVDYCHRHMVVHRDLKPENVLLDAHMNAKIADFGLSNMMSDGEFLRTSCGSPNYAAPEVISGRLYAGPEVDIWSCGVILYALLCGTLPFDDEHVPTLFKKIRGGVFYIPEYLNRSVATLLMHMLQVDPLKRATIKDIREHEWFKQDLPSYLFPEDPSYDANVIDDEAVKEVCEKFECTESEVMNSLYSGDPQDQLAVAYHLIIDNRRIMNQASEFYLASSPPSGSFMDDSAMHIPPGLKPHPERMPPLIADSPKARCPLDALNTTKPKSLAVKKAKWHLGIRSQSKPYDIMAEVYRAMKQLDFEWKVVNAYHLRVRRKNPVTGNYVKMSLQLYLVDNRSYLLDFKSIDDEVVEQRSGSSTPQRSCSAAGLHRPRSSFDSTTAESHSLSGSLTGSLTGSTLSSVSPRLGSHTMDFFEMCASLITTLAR
Assay [3] has as its target Histone-lysine N-methyltransferase SETDB1 (Homo sapiens) (UniProt Q15047). Conditions: at 1 µM.
In assay [4] the target is Fibroblast growth factor receptor 4 (Homo sapiens, UniProt P22455). As to the kind of experiment: Selectivity interaction (KinomeScan (DiscoverX)) EUB0000229b FGFR4. Conditions: at 10 µM.
The target of assay [5] is Mitogen-activated protein kinase kinase kinase 11 (Homo sapiens) (UniProt Q16584). Kind of assay: Selectivity interaction (KinomeScan (DiscoverX)) EUB0000655a MAP3K11. Conditions: at 10 µM.
Mitogen-activated protein kinase kinase kinase 11 (Homo sapiens), sequence (Q16584 whole entry, looked up): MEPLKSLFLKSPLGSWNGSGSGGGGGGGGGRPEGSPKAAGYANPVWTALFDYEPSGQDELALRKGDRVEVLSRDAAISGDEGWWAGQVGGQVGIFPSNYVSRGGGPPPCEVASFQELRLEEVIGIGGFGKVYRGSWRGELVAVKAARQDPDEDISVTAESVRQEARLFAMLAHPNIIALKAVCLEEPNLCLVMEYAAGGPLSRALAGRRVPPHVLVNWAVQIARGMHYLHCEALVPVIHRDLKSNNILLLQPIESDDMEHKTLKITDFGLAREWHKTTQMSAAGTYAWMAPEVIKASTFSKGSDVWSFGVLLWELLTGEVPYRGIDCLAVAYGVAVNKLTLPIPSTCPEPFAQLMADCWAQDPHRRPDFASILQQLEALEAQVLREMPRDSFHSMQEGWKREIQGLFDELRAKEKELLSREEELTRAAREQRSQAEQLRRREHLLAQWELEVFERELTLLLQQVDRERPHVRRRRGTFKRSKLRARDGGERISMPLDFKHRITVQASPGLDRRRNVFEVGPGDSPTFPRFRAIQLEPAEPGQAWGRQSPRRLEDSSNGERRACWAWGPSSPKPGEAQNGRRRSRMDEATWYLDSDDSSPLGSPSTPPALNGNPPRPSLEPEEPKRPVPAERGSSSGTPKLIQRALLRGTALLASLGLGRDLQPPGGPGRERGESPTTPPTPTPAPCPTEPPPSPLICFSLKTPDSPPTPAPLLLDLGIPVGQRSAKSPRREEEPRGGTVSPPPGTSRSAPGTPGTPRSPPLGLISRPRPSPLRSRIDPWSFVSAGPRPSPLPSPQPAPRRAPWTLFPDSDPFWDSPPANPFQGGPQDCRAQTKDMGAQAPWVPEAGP
In assay [6] the target is Serine/threonine-protein kinase tousled-like 2 (Homo sapiens) (UniProt Q86UE8). As to the kind of experiment: Selectivity interaction (KinomeScan (DiscoverX)) EUB0001079a TLK2. Conditions: at 1 µM.
Serine/threonine-protein kinase tousled-like 2 (Homo sapiens), sequence (Q86UE8 whole entry, looked up): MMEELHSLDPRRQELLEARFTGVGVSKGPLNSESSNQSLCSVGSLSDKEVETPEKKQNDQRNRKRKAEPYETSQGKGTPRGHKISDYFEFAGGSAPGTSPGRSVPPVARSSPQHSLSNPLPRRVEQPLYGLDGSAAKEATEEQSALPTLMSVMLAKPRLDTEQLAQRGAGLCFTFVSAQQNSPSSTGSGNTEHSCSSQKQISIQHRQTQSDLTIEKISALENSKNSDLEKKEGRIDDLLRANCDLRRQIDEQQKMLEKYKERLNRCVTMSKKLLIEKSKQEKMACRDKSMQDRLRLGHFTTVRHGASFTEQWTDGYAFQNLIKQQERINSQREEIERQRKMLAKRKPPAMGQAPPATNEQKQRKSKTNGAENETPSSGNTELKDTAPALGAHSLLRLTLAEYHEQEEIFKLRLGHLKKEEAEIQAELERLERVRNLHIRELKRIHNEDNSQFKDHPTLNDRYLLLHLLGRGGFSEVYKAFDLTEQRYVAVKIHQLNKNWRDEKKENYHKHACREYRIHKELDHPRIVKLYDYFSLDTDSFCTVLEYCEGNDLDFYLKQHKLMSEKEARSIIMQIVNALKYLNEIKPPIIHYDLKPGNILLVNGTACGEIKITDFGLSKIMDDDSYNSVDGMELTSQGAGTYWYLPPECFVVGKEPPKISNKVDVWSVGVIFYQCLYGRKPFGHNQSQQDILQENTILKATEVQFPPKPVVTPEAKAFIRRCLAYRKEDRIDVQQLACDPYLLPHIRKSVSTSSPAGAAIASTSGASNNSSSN
For assay [7], the target named is T2, Dual specificity mitogen-activated protein kinase kinase 6 (Homo sapiens) (UniProt P52564).
T2 sequence (whole entry): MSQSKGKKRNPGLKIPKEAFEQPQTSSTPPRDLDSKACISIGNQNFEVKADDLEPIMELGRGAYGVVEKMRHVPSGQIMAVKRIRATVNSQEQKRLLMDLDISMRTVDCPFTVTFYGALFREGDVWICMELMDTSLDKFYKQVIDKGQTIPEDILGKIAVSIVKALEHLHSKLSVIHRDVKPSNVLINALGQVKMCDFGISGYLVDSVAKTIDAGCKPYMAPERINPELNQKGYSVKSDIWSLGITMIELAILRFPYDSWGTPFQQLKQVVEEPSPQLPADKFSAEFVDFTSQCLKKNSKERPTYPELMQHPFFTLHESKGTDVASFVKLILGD
Kind of assay: Selectivity interaction (ActivX KiNativ screen (kinase selectivity in THP-1 cell lysates)) EUB0000639a MAP2K6. Format: subcellular. Conditions: lysate, at 0.2 µM.

Assay [8] deals with T3, Serine/threonine-protein kinase Nek9 (Homo sapiens) (UniProt Q8TD19).
T3 sequence (whole entry): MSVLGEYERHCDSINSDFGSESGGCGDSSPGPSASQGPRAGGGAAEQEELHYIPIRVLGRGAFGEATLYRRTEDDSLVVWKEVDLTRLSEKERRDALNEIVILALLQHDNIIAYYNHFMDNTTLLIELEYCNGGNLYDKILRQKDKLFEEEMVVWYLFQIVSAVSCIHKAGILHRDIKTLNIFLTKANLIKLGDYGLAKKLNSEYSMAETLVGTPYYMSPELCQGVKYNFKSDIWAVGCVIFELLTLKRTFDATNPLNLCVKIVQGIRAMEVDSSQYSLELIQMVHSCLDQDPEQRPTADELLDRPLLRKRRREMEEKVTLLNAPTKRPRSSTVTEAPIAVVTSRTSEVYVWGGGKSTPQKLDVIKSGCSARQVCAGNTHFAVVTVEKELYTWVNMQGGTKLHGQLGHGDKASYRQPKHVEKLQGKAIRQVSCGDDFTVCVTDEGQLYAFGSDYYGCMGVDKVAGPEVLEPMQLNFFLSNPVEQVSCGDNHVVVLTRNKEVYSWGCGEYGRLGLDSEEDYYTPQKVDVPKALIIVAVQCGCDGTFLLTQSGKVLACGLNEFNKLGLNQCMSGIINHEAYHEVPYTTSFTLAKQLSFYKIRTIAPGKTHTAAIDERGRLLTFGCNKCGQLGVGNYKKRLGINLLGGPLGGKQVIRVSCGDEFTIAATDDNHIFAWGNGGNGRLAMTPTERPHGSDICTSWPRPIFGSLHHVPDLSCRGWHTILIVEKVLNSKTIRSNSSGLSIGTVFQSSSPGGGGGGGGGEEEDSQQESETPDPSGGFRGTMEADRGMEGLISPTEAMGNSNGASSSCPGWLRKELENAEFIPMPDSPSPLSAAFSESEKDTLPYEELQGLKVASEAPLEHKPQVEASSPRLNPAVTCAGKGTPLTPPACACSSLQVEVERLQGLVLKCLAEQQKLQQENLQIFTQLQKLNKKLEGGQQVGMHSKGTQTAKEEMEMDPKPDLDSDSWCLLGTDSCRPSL
As to the kind of experiment: Selectivity interaction (ActivX KiNativ screen (kinase selectivity in THP-1 cell lysates)) EUB0000639a NEK9. Conditions: lysate, at 0.01 µM. It counts as subcellular.

The target of assay [9] is T4, Serine/threonine-protein kinase STK11 (Homo sapiens) (UniProt Q15831).
T4 sequence (whole entry): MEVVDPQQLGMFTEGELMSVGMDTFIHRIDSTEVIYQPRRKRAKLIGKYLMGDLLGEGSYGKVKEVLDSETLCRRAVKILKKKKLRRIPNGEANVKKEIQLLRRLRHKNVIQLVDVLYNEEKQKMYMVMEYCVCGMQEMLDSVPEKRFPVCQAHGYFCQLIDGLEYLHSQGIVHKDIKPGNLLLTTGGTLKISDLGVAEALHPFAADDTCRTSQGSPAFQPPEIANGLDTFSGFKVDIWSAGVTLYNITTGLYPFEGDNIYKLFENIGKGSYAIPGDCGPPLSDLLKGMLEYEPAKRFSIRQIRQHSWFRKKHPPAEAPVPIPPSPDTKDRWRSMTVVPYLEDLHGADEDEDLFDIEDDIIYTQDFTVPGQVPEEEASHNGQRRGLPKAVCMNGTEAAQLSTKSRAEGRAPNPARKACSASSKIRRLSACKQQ
Conditions: at 10 µM.

The test system of assay [10] is ALK tyrosine kinase receptor (Homo sapiens), Q9UM73 [C1156Y]. Kind of assay: (§1) Selectivity interaction (KinomeScan (DiscoverX)) EUB0001049a ALK. Conditions: at 1 µM.
ALK tyrosine kinase receptor (Homo sapiens), Q9UM73 [C1156Y], sequence (Q9UM73 whole entry C1156Y, looked up): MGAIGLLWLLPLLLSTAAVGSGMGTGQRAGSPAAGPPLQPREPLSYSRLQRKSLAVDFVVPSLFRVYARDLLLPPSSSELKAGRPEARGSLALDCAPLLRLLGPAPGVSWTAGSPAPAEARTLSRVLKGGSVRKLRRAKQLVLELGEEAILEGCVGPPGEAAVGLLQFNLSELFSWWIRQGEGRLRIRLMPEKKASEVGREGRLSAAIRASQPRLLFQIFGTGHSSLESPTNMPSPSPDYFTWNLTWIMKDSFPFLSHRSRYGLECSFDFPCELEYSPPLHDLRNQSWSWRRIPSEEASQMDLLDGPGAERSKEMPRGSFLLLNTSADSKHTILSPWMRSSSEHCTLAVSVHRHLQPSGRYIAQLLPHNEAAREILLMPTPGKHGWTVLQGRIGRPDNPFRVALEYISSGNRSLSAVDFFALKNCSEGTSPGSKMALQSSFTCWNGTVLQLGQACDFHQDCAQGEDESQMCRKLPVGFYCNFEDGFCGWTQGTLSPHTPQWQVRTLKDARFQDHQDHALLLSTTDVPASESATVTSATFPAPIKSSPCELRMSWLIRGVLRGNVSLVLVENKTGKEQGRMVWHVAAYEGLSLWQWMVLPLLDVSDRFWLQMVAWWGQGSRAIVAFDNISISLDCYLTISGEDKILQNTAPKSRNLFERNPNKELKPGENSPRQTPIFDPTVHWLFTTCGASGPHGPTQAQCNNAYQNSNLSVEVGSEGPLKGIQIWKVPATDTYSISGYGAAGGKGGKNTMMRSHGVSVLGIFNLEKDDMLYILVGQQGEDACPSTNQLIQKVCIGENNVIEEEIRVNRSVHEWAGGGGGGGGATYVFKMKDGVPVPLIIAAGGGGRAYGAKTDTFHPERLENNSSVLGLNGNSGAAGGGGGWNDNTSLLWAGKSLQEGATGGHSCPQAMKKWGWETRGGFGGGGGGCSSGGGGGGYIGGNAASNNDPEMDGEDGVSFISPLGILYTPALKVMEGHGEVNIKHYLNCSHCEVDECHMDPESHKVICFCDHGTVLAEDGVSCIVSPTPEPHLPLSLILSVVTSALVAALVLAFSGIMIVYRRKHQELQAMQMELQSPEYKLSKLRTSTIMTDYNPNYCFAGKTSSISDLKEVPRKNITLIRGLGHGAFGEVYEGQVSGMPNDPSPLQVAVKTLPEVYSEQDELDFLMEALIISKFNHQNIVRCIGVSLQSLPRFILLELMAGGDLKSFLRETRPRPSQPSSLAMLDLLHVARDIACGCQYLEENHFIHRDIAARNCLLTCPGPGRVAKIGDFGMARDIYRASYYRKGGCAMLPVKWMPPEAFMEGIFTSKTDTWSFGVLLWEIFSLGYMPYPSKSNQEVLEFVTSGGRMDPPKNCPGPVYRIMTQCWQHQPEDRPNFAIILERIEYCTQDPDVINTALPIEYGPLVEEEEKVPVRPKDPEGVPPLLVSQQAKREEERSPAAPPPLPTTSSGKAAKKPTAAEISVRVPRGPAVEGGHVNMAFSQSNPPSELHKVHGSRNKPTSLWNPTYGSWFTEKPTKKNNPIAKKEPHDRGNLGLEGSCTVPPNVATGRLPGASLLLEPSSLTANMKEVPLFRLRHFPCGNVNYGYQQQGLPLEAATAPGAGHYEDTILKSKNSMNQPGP
The test system of assay [11] is ALK tyrosine kinase receptor (Homo sapiens), Q9UM73 [L1196M]. The description is as §1. Conditions: at 1 µM.
ALK tyrosine kinase receptor (Homo sapiens), Q9UM73 [L1196M], sequence (Q9UM73 whole entry L1196M, looked up): as the sequence (Q9UM73 whole entry C1156Y, looked up) above, with Y1156C, L1196M counted along it
Assay [12] has as its target ALK tyrosine kinase receptor (Homo sapiens, UniProt Q9UM73). The description is as §1. Conditions: at 1 µM.
Assay [13] has as its target Receptor-interacting serine/threonine-protein kinase 2 (Homo sapiens, UniProt O43353). Kind of assay: Selectivity interaction (KinomeScan (DiscoverX)) EUB0000045b RIPK2.
In assay [14] the target is Serine/threonine-protein kinase Nek7 (Homo sapiens) (UniProt Q8TDX7). Kind of assay: Selectivity interaction (KinomeScan (DiscoverX)) EUB0000618a NEK7. Conditions: at 10 µM.
Serine/threonine-protein kinase Nek7 (Homo sapiens), sequence (Q8TDX7 whole entry, looked up): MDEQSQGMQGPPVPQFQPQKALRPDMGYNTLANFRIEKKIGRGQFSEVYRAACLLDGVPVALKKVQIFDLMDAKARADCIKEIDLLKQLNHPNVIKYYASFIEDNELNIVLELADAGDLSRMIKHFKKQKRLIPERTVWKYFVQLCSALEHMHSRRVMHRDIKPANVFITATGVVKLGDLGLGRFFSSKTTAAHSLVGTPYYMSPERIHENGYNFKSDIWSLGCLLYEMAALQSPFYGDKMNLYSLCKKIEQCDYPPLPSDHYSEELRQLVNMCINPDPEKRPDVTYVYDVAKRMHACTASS

Receptor-interacting serine/threonine-protein kinase 2, sequence (O43353 whole entry): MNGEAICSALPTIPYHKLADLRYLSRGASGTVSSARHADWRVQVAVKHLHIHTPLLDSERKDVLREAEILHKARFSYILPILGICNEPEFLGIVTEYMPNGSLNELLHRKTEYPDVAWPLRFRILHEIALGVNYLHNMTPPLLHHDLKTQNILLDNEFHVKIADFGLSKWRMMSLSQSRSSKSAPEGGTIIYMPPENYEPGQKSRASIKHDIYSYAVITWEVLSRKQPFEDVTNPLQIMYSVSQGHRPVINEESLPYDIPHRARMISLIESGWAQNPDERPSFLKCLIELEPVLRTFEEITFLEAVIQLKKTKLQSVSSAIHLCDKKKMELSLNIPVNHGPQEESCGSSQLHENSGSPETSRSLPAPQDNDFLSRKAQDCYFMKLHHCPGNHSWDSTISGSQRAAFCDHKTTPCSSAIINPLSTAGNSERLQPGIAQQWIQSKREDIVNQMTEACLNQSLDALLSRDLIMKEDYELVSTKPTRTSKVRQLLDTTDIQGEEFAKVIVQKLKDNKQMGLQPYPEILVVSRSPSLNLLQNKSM

Turning to `Cn1cc(-n2cnc3c(NCc4nc5cc(Cl)c(Cl)cc5[nH]4)nc(N4CCOCC4)nc32)cn1`, in assay [1], the % of inhibition was -25.4%.

In assay [2], `C=CC(=O)Nc1ccc(C(=O)Nc2[nH]nc3c2CN(C(=O)N[C@H](CN(C)C)c2ccccc2)C3(C)C)cc1` had a % of engagement of 53.5%. Consider `CNCCN1CCC(c2cc(CN(C)C(=O)c3cccc(Oc4ccccc4)c3)ccn2)CC1`, for which, in [3], the % activity was above 90%. `COc1cc(N(C)c2ccnc3ccc(C(F)(F)F)cc23)cc(OC)c1OC` gave a % binding in assay [4] of 100%.

In assay [5], `CN(C)CCOc1ccc(-c2nc(-c3ccncc3)c(-c3ccc4c(c3)CC/C4=N\O)[nH]2)cc1` registered a % of control of 100%. Compound `Nc1cnc(N2CCc3cc(S(=O)(=O)Nc4c(F)cc(Cl)cc4F)cc(N4CCCC4=O)c32)nc1` [TP-020n] showed a % of control in assay [6] of 79%. On to `CC[C@@H]1[C@H](F)C(=O)N[C@@H]1COc1nccc2cc(C(N)=O)c(OC)cc12` [ZIMLOVISERTIB], for which the % of inhibition amounted to 12.8% in assay [7] and 1.1% in [8].

`CCN(CC)CCCCNc1ncc2cc(-c3cc(OC)cc(OC)c3)c(NC(=O)NC(C)(C)C)nc2n1`: the % of control in assay [9] was found to be 100%. For `COc1cc(Nc2nc(C)cc(-c3cnn4nc(OC)ccc34)n2)cc(C(F)(F)F)c1`, the % of control came to 89% in [10], 100% in [11] and 94% in assay [12]. On to `C=CC(=O)Nc1cc(-n2c(=O)ccc3cnc4ccc(-c5ccc(NS(C)(=O)=O)cc5)cc4c32)ccc1C`, for which the results for the % of control in assay [13] (at 1 µM) and in [13] (at 10 µM) were 100% and 92%, respectively. Turning to `O[C@H]1CC[C@H](Nc2ncc3nc(Nc4c(F)cc(F)cc4F)n([C@H]4CCOC4)c3n2)CC1`, in [14], the % of control is 95%.
